Results as given in patent US20210300912A1 (Ikena Oncology, Inc., priority 2019, published 2021).
Like-named read-outs stand apart in the source and are kept apart here.

Key:
[1] = molecular target: T1, AHR (Homo sapiens, UniProt P35869); assay: DRE-Luciferase Reporter Assay, HepG2, agonist; assay type: cell-based; details: HepG2 cells, agonist mode
T1 construct: endogenous in cells; host or cells: HepG2 (human), DRE-luciferase reporter stably or transiently transfected
T1 sequence (P35869 11-848): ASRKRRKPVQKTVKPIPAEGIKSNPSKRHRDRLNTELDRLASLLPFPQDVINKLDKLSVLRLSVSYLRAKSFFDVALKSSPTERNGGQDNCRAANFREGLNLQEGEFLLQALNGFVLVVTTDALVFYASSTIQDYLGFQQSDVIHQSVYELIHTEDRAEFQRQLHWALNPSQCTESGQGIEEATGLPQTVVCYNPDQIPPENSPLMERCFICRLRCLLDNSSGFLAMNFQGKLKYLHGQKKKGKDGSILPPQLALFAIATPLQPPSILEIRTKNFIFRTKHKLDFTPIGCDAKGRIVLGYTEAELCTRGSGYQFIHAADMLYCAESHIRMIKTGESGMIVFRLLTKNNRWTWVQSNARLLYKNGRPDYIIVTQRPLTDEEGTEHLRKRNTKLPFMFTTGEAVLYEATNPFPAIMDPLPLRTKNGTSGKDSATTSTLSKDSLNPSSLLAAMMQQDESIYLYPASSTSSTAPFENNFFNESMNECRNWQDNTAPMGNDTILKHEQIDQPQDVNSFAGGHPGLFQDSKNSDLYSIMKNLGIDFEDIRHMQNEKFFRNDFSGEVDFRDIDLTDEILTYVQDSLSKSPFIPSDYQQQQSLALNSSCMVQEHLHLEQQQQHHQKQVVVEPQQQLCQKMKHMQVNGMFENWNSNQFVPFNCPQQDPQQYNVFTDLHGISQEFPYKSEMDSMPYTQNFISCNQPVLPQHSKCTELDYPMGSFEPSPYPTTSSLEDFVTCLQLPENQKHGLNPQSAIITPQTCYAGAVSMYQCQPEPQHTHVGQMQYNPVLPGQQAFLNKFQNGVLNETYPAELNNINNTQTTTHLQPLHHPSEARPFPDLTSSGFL
Experimental: (§1) AHR binds to Dioxin Responsive Elements (DRE) upstream of genes that it activates. One measure of AHR activity is activation of a reporter gene, such as luciferase, downstream of one or multiple DRE elements. Luciferase activity will reflect activation and inhibition of AHR in the cells expressing this reporter.
(§2) Murine Hepa1-6 or Hepa-1c1c7 or other murine cell line with a DRE-luciferase reporter either stably or transiently transfected are plated in media in plates (96-well, 384-well or other plates) and incubated overnight at 37 C in a CO2 incubator. Likewise, human HepG2 or other human cell line with a DRE-luciferase reporter either stably or transiently transfected are plated in media in plates (96-well, 384-well or other plates) and incubated overnight at 37 C in a CO2 incubator.
(§3) The next day, an AHR agonist compound is added. Cells are incubated for 6, 16 or 24 hours or another time point and then lysed for determination of luciferase activity as a read-out of the AHR activation. Luciferase can be measured with a commercial kit such as the Promega Luciferase kit or any kit or reagents that provide the luciferin substrate for measuring luciferase activity. The level of luciferase with only activating ligand (e.g. such as TCDD, kynurenine, ITE (2-(1H-indole-3-ylcarbonyl)-4-thiazolecarboxylic methyl ester), VAF347, BNF (beta-naphthoflavone), ICZ (6-formylindolo(3,2-b) carbazole or other AHR ligands) added is the maximum signal while the luciferase with no ligand is the minimum signal. EC50s can be determined as the concentration which activates half of the maximum luciferase activity.

[2] = molecular target: T2, AHR (Mus musculus, UniProt P30561); assay: P450 CYP1A1 Luciferase Assay, Hepa1.6, agonist; assay type: cell-based, murine; details: Hepa1.6 cells, CYP1A1 enzyme activity read-out, agonist mode; Table 2
T2 construct: endogenous in cells; host or cells: Hepa1-6 / Hepa1.6 (murine hepatoma); DRE-luciferase reporter transfected in A3, no transfection in A2
T2 sequence (P30561 10-805 limits assumed): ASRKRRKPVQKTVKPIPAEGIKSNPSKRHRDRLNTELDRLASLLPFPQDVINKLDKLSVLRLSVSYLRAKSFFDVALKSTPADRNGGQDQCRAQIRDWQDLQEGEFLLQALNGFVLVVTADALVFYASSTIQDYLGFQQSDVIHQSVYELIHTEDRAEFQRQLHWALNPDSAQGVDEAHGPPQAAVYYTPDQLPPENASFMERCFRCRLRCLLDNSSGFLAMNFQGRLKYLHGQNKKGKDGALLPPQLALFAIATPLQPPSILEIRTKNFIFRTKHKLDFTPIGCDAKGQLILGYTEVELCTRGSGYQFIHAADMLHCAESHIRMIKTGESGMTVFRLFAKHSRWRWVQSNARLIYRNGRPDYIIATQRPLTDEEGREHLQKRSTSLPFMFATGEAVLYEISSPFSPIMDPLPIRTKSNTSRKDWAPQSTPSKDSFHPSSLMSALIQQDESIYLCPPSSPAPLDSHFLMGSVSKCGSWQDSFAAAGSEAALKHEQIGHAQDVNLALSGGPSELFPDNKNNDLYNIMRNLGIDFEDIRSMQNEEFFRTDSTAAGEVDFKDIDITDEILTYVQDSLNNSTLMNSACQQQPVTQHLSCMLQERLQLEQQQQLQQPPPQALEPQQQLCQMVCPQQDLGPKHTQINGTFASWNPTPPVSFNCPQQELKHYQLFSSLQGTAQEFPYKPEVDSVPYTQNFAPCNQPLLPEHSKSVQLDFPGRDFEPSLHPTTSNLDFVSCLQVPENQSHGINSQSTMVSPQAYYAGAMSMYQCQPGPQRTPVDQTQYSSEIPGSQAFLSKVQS
T2 sequence (P11499 whole entry partner): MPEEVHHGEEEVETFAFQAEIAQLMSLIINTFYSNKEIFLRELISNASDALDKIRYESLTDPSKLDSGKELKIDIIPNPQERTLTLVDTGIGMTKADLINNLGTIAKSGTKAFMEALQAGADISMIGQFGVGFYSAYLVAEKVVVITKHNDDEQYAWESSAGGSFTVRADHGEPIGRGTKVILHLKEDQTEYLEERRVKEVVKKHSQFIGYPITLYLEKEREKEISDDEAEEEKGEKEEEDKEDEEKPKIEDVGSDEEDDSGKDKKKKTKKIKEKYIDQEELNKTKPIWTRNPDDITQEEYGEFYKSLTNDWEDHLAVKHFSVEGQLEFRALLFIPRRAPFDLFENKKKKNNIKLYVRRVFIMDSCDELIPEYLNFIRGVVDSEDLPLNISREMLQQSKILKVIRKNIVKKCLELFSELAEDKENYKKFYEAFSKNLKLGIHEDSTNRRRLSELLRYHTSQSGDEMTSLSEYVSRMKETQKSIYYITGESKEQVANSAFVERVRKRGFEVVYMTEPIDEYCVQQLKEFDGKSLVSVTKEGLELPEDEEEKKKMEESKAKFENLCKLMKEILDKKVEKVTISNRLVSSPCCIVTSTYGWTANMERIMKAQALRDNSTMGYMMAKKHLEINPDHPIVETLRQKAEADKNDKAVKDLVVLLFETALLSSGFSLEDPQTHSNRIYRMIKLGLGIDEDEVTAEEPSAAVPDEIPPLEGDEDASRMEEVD
T2 sequence (O08915 whole entry partner): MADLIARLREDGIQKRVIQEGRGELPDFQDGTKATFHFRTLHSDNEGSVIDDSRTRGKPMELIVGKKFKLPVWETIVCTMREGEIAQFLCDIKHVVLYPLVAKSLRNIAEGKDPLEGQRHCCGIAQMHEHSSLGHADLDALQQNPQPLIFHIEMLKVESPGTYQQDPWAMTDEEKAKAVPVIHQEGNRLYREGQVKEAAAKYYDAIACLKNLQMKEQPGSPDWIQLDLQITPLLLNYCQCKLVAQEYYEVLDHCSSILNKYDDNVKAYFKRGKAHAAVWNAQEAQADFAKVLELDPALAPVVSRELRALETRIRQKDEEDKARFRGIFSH
Experimental: AHR binds to Dioxin Responsive Elements (DRE) upstream of genes that it activates. One measure of AHR activity is P450 CYP1A1 protein levels determined by measuring CYP1A1 enzyme activity using a luminogenic CYP1A1 luciferin-based substrate. Luciferase activity will reflect CYP1A1 activity resulting from activation of AHR in the cells.
Murine Hepa1-6 or Hepa-1c1c7 or other murine cell line, human HepG2 or other human cell line are plated in media (96-well, 384-well or other plates) and incubated overnight at 37 C in a CO2 incubator.
as §3, with “lysed and incubated with a CYP1A1 luciferase-based substrate (e.g., Luciferin-CEE)” for “lysed”, “3, 6, or 12 hours of another time point. Determination” for “determination”, “CYP1A1 enzyme activity” for “the AHR activation. Luciferase”, “P450 Glo CYP1A1 detection reagent” for “Luciferase kit”, “provide” for “provide the luciferin substrate”, “(e.g.,” for “(e.g.”

[3] = molecular target: T2, AHR; assay: DRE-Luciferase Reporter Assay, Hepa1.6, agonist; assay type: cell-based, murine; details: Hepa1.6 cells, agonist mode
Experimental: as §1, §2, §3

[4] = Table 2, read-out: DRE-Luc HepG2 - Agonist: Average EC50
[5] = DRE-Luc Hepa1.6 - Agonist: Average EC50 (μM), Table 3
[6] = Table 3, read-out: DRE-Luc HepG2 - Agonist: Average EC50
[7] = Table 3, read-out: DRE-Luc Hepa1.6 - Agonist: Average EC50

Structure (SMILES): COc1ccc2c(C(=O)c3nc(C(C)C)cs3)c[nH]c2c1 [Compound I-2]
- EC50 [1, 4]: < 10 nM
- EC50 [2]: > 1000 nM

Structure (SMILES): O=C(c1nc([C@H]2CC[C@H](C(=O)O)CC2)cs1)c1c[nH]c2ccccc12 [Compound I-4]
- EC50 [1, 4]: 100 to 1000 nM
- EC50 [2]: > 1000 nM

Structure (SMILES): O=C(O)CCCN1CCC(c2csc(C(=O)c3c[nH]c4ccccc34)n2)CC1 [Compound I-5]
- EC50 [1, 4]: 100 to 1000 nM
- EC50 [2]: > 1000 nM

Structure (SMILES): CN1CCC(c2csc(C(=O)c3c[nH]c4ccccc34)n2)CC1 [Compound I-7]
- EC50 [1, 4]: 100 to 1000 nM
- EC50 [2]: > 1000 nM

Structure (SMILES): C[N+]1(C)CCC(c2csc(C(=O)c3c[nH]c4ccccc34)n2)CC1 [Compound I-8]
- EC50 [1, 4]: 100 to 1000 nM
- EC50 [2]: > 1000 nM

Structure (SMILES): O=C(c1nc([C@H]2CC[C@@H](C(=O)O)CC2)cs1)c1c[nH]c2ccccc12 [Compound I-9]
- EC50 [1, 4]: 100 to 1000 nM
- EC50 [2]: > 1000 nM

Structure (SMILES): Cc1sc(C(=O)c2c[nH]c3ccccc23)nc1C(=O)OC1CC[N+](C)(C)CC1 [Compound I-10]
- EC50 [1, 4]: 100 to 1000 nM
- EC50 [2]: > 1000 nM

Structure (SMILES): Cc1sc(C(=O)c2c[nH]c3ccccc23)nc1C(=O)OC(C)C [Compound I-11]
- EC50 [1, 4]: 100 to 1000 nM
- EC50 [2]: > 1000 nM

Structure (SMILES): O=C(O)CCC(=O)N1CCC(c2csc(C(=O)c3c[nH]c4ccccc34)n2)CC1 [Compound I-18]
- EC50 [1, 4]: > 1000 nM
- EC50 [2]: > 1000 nM

Structure (SMILES): CC(C)c1csc(C(=O)c2c[nH]c3ccc(S(=O)(=O)O)cc23)n1 [Compound I-19]
- EC50 [1, 4]: > 1000 nM
- EC50 [2]: > 1000 nM

Structure (SMILES): C[N+](C)(C)CCCN1CCC(c2csc(C(=O)c3c[nH]c4ccccc34)n2)CC1 [Compound I-20]
- EC50 [1, 4]: > 1000 nM
- EC50 [2]: > 1000 nM

Structure (SMILES): C[N+](C)(C)CCC(=O)N1CCC(c2csc(C(=O)c3c[nH]c4ccccc34)n2)CC1 [Compound I-23]
- EC50 [1, 4]: > 1000 nM
- EC50 [2]: > 1000 nM

Structure (SMILES): O=C(c1nc([C@H]2CC[C@@H](O)CC2)cs1)c1c[nH]c2ccccc12 [Compound I-47]
- EC50 [1, 4]: > 1000 nM
- EC50 [2]: > 1000 nM

Structure (SMILES): CC(C)(C)c1csc(C(=O)c2c[nH]c3ccccc23)n1 [Compound I-61]
- EC50 [3, 5]: < 0.01 µM
- EC50 [1, 6]: < 10 nM

Structure (SMILES): CC(C)c1csc(C(=O)c2c[nH]c3cc(C(=O)O)ccc23)n1 [Compound I-62]
- EC50 [3, 5]: > 1 µM
- EC50 [1, 6]: > 1000 nM

Structure (SMILES): CC(C)c1csc(C(=O)c2c[nH]c3ccc(C(=O)O)cc23)n1 [Compound I-78, 3-(4-Isopropylthiazole-2-carbonyl)-1H-indole-5-carboxylic acid]
- EC50 [3, 7]: > 1 µM
- EC50 [1, 6]: 100 to 1000 nM

Structure (SMILES): CNc1sc(C(=O)c2c[nH]c3ccccc23)nc1C(=O)OC [Compound I-84, Methyl 2-(1H-indole-3-carbonyl)-5-(methylamino)thiazole-4-carboxylate]
- EC50 [3, 5]: < 0.01 µM
- EC50 [1, 6]: < 10 nM

Structure (SMILES): CC(C)c1csc(C(=O)c2c[nH]c3c(C(=O)O)cccc23)n1 [Compound I-89]
- EC50 [3, 7]: > 1 µM
- EC50 [1, 6]: > 1000 nM

Structure (SMILES): COC(=O)c1csc(C(=O)c2c[nH]c3cc([N+](=O)[O-])ccc23)n1 [Compound I-90]
- EC50 [3, 5]: 0.01 to 0.1 µM
- EC50 [1, 6]: 10 to 100 nM

Structure (SMILES): COC(=O)c1nc(C(=O)c2c[nH]c3ccccc23)sc1Nc1ccccc1 [Compound I-91]
- EC50 [3, 7]: > 1 µM
- EC50 [1, 6]: > 1000 nM

Structure (SMILES): O=C(c1nc(C(F)(F)F)cs1)c1c[nH]c2ccccc12 [Compound I-92]
- EC50 [3, 5]: < 0.01 µM
- EC50 [1, 6]: < 10 nM

Structure (SMILES): COC(=O)c1csc(C(=O)c2c[nH]c3cccc(N)c23)n1 [Compound I-93]
- EC50 [3, 5]: 0.01 to 0.1 µM
- EC50 [1, 6]: 100 to 1000 nM

Structure (SMILES): CC(C)c1csc(C(=O)c2c[nH]c3cc(C(=O)OCCOCCO)ccc23)n1 [Compound I-94]
- EC50 [3, 7]: > 1 µM
- EC50 [1, 6]: > 1000 nM

Structure (SMILES): COC(=O)c1nc(C(=O)c2c[nH]c3ccccc23)sc1N(C)C [Compound I-95]
- EC50 [3, 7]: > 1 µM
- EC50 [1, 6]: 10 to 100 nM

Structure (SMILES): COC(=O)c1ccc2c(C(=O)c3nc(C(=O)OC)c(N)s3)c[nH]c2c1 [Compound I-96]
- EC50 [3, 5]: < 0.01 µM
- EC50 [1, 6]: < 10 nM

Structure (SMILES): N#Cc1nc(C(=O)c2c[nH]c3ccccc23)sc1Br [Compound I-97]
- EC50 [3, 7]: > 1 µM
- EC50 [1, 6]: 100 to 1000 nM

Structure (SMILES): CC(C)c1csc(C(=O)c2c[nH]c3ccccc23)n1 [Compound P-2]
- EC50 [1, 4]: < 10 nM
- EC50 [2]: > 1000 nM

Structure (SMILES): CNC(=O)c1csc(C(=O)c2c[nH]c3ccccc23)n1 [Compound P-3]
- EC50 [2]: > 1000 nM

Structure (SMILES): COC(=O)c1csc(C(=O)c2c[nH]c3ccccc23)n1 [Compound P-4]
- EC50 [1, 4]: 10 to 100 nM
- EC50 [2]: > 1000 nM
